According to US20030004172A1, “Fused pyrimidinone matrix metalloproteinase inhibitors” (priority 2001, published 2003):

Biological target: MMP-13CD (catalytic domain of collagenase-3) (Homo sapiens, UniProt P45452)
Assay: Thiopeptolide substrate hydrolysis inhibition assay, MMP-13CD
Type: biochemical
Conditions: Table I; thiopeptolide substrate, HEPES pH 7.0, 22° C.; read-out: MMP-13CD IC50
Description: Thiopeptolide substrates show virtually no decomposition or hydrolysis at or below neutral pH in the absence of a matrix metalloproteinase enzyme.

Point of comparison: `C=C(Cn1c(=O)c2cc(C(=O)OCc3ccccc3)sc2n(C)c1=O)C(=O)O` [Example 114], IC50 330 nM. Against it:
- Cc1ccc(Cn2c(=O)c3cc(C(=O)OCc4ccccc4)sc3n(C)c2=O)cc1 [Example 103, 1-Methyl-3-(4-methyl-benzyl)-2,4-dioxo-1,2,3,4-tetrahydro-thieno[2,3-d]pyrimidine-6-carboxylic acid benzyl ester] — 11-fold lower, 30 nM
- Cn1c(=O)n(CCc2ccccc2)c(=O)c2cc(C(=O)OCc3ccccc3)sc21 [Example 104, 1-Methyl-2,4-dioxo-3-phenethyl-1,2,3,4-tetrahydro-thieno[2,3-d]pyrimidine-6-carboxylic acid benzyl ester] — 3.3-fold higher, 1100 nM
- Cn1c(=O)n(Cc2nc(N)nc(Nc3ccccc3)n2)c(=O)c2cc(C(=O)OCc3ccccc3)sc21 [Example 105, 3(4-Amino-6-phenylamino-1,3,5-triazin-2-ylmethyl)-1-methyl-2,4-dioxo-1,2,4-tetrahydro-thieno[2,3-d]pyrimidine-6-carboxylic acid benzyl ester] — 1.6-fold higher, 520 nM
- Cn1c(=O)n(Cc2ccc(C(F)(F)F)cc2)c(=O)c2cc(C(=O)OCc3ccccc3)sc21 [Example 106, 1-Methyl-2,4-dioxo-3-(4-trifluoromethyl-benzyl)-1,2,3,4-tetrahydro-thieno[2,3-d]pyrimidine-6-carboxylic acid benzyl ester] — 1.8-fold higher, 590 nM
- Cn1c(=O)n(CCCCCCC#N)c(=O)c2cc(C(=O)OCc3ccccc3)sc21 [Example 107, 3-(6-Cyano-hexyl)-1-methyl-2,4-dioxo-1,2,3,4-tetrahydro-thieno[2,3-d]pyrimidine-6-carboxylic acid benzyl ester] — 7.3-fold higher, 2400 nM
- COc1ccc(OC)c(C(=O)Cn2c(=O)c3cc(C(=O)OCc4ccccc4)sc3n(C)c2=O)c1 [Example 108, 3-[2-(2,5-Dimethoxy-phenyl)-2-oxo-ethyl]-1-methyl-2,4-dioxo-1,2,3,4-tetrahydro-thieno[2,3-d]pyrimidine-6-carboxylic acid benzyl ester] — 5.2-fold higher, 1700 nM
- Cn1c(=O)n(Cc2cccc(I)c2)c(=O)c2cc(C(=O)OCc3ccccc3)sc21 [Example 109, 3-(3-Iodo-benzyl)-1-methyl-2,4-dioxo-1,2,3,4-tetrahydro-thieno[2,3-d]pyrimidine-6-carboxylic acid benzyl ester] — 2.8-fold higher, 940 nM
- Cn1c(=O)n(Cc2cccc(C(F)(F)F)c2)c(=O)c2cc(C(=O)OCc3ccccc3)sc21 [Example 110, 1-Methyl-2,4-dioxo-3-(3-trifluoromethyl-benzyl)-1,2,3,4-tetrahydro-thieno[2,3-d]pyrimidine-6-carboxylic acid benzyl ester] — within 1.5-fold, 420 nM
- Cn1c(=O)n(Cc2ccc(C(F)(F)F)cc2C(F)(F)F)c(=O)c2cc(C(=O)OCc3ccccc3)sc21 [Example 111, 3-(2,4-Bis-trifluoromethyl-benzyl)-1-methyl-2,4-dioxo-1.2.3.4-tetrahydro-thieno[2,3-d]pyrimidine-6-carboxylic acid benzyl ester] — 9.7-fold higher, 3200 nM
- Cn1c(=O)n(CCN2C(=O)c3ccccc3C2=O)c(=O)c2cc(C(=O)OCc3ccccc3)sc21 [Example 112, 3-[2-(1,3-Dioxo-1,3-dihydro-isoindol-2-yl)-ethyl]-1-methyl-2,4-dioxo-1,2,3,4-tetrahydro-thieno[2,3-d]pyrimidine-6-carboxylic acid benzyl ester] — 8.8-fold higher, 2900 nM
- Cn1c(=O)n(CCN2C(=O)c3ccccc3C2=O)c(=O)c2cc(C(=O)OCc3ccccc3)sc21 [Example 113, 3-[2-(1,3-Dioxo-1,3-dihydro-isoindol-2-yl)-ethyl]-1-methyl-2,4-dioxo-1,2,3,4-tetrahydro-thieno[2,3-d]pyrimidine-6-carboxylic acid benzyl ester] — 8.8-fold higher, 2900 nM
- C=C(Cn1c(=O)c2cc(C(=O)OCc3ccccc3)sc2n(C)c1=O)C(=O)O [Example 115, 3-(2-Carboxy-allyl)-1-methyl-2,4-dioxo-1,2,3,4-tetrahydro-thieno[2,3-d]pyrimidine-6-carboxylic acid benzyl ester] — the same, 330 nM
- Cn1c(=O)n(CCCN)c(=O)c2cc(C(=O)OCc3ccccc3)sc21 [Example 116, 3-(3-Amino-propyl)-1-methyl-2,4-dioxo-1,2,3,4-tetrahydro-thieno[2,3-d]pyrimidine-6-carboxylic acid benzyl ester] — 39-fold higher, 13000 nM
- Cn1c(=O)n(CN2C(=O)c3ccccc3C2=O)c(=O)c2cc(C(=O)OCc3ccccc3)sc21 [Example 117, 3-(1,3-Dioxo-1,3-dihydro-isoindol-2-ylmethyl)-1-methyl-2,4-dioxo-1,2,3,4-tetrahydro-thieno[2,3-d]pyrimidine-6-carboxylic acid benzyl ester] — 9.2-fold lower, 36 nM
- Cn1c(=O)n(Cc2ccc(F)cc2)c(=O)c2cc(C(=O)OCc3ccccc3)sc21 [Example 118, 3-(4-Fluoro-benzyl)-1-methyl-2,4-dioxo-1,2,3,4-tetrahydro-thieno[2,3-d]pyrimidine-6-carboxylic acid benzyl ester] — 22-fold lower, 15 nM
- Cn1c(=O)n(CC2CO2)c(=O)c2cc(C(=O)OCc3ccccc3)sc21 (stereo not drawn) [Example 119, 1-Methyl-3-oxiranylmethyl-2,4-dioxo-1,2,3,4-tetrahydro-thieno[2,3-d]pyrimidine-6-carboxylic acid benzyl ester] — 1.5-fold higher, 510 nM
- CCC(C)Cn1c(=O)c2cc(C(=O)OCc3ccccc3)sc2n(C)c1=O (stereo not drawn) [Example 120, 1-Methyl-3-(2-methyl-butyl)-2,4-dioxo-1,2,3,4-tetrahydro-thieno[2,3-d]pyrimidine-6-carboxylic acid benzyl ester] — 2.5-fold lower, 130 nM
- Cn1c(=O)n(CCCCOc2ccccc2)c(=O)c2cc(C(=O)OCc3ccccc3)sc21 [Example 121, 1-Methyl-2,4-dioxo-3-(4-phenoxy-butyl)-1,2,3,4-tetrahydro-thieno[2,3-d]pyrimidine-6-carboxylic acid benzyl ester] — within 1.5-fold, 250 nM
- Cn1c(=O)n(Cc2ccccc2C#N)c(=O)c2cc(C(=O)OCc3ccccc3)sc21 [Example 122, 3-(2-Cyano-benzyl)-1-methyl-2,4-dioxo-1,2,3,4-tetrahydro-thieno[2,3-d]pyrimidine-6-carboxylic acid benzyl ester] — 14-fold higher, 4500 nM
- Cn1c(=O)n(CCCOc2ccccc2)c(=O)c2cc(C(=O)OCc3ccccc3)sc21 [Example 123, 1-Methyl-2,4-dioxo-3-(3-phenoxy-propyl)-1,2,3,4-tetrahydro-thieno[2,3-d]pyrimidine-6-carboxylic acid benzyl ester] — 24-fold higher, 7800 nM
- C=CCCCCn1c(=O)c2cc(C(=O)OCc3ccccc3)sc2n(C)c1=O [Example 124, 3-Hex-5-enyl-1-methyl-2,4-dioxo-1,2,3,4-tetrahydro-thieno[2,3-d]pyrimidine-6-carboxylic acid benzyl ester] — 3-fold lower, 110 nM
- Cn1c(=O)n(Cc2cccnc2)c(=O)c2cc(C(=O)OCc3ccccc3)sc21 [Example 125, 1-Methyl-2,4-dioxo-3-pyridin-3-ylmethyl-1,2,3,4-tetrahydro-thieno[2,3-d]pyrimidine-6-carboxylic acid benzyl ester] — 3.7-fold lower, 90 nM
- Cn1c(=O)n(CC(O)COc2cccc3ccccc23)c(=O)c2cc(C(=O)OCc3ccccc3)sc21 (stereo not drawn) [Example 126, 3-[2-Hydroxy-3-(naphthalen-1-yloxy)-propyl]-1-methyl-2,4-dioxo-1,2,3,4-tetrahydro-thieno[2,3-d]pyrimidine-6-carboxylic acid benzyl ester] — 39-fold higher, 13000 nM
- Cn1c(=O)c2cc(C(=O)OCc3ccccc3)sc2n(C)c1=O [Example 127, 1,3-Dimethyl-2,4-dioxo-1,2,3,4-tetrahydro-thieno[2,3-d]pyrimidine-6-carboxylic acid benzyl ester] — 12-fold higher, 3900 nM
- C=CCn1c(=O)c2cc(C(=O)OCc3ccccc3)sc2n(C)c1=O [Example 129, 3-Allyl-1-methyl-2,4-dioxo-1,2,3,4-tetrahydro-thieno[2,3-d]pyrimidine-6-carboxylic acid benzyl ester] — 2.1-fold lower, 160 nM
- C#CCn1c(=O)c2cc(C(=O)OCc3ccccc3)sc2n(C)c1=O [Example 130, 1-Methyl-2,4-dioxo-3-prop-2-ynyl-1,2,3,4-tetrahydro-thieno[2,3-d]pyrimidine-6-carboxylic acid benzyl ester] — 3.4-fold lower, 97 nM
- CC#CCn1c(=O)c2cc(C(=O)OCc3ccccc3)sc2n(C)c1=O [Example 131, 3-But-2-ynyl-1-methyl-2,4-dioxo-1,2,3,4-tetrahydro-thieno[2,3-d]pyrimidine-6-carboxylic acid benzyl ester] — 17-fold lower, 19 nM
- Cn1c(=O)n(CCOc2ccccc2)c(=O)c2cc(C(=O)OCc3ccccc3)sc21 [Example 132, 1-Methyl-2,4-dioxo-3-(2-phenoxy-ethyl)-1,2,3,4-tetrahydro-thieno[2,3-d]pyrimidine-6-carboxylic acid benzyl ester] — 4.5-fold lower, 74 nM
- Cn1c(=O)n(CCOc2ccccc2)c(=O)c2cc(C(=O)OCc3ccccc3)sc21 [Example 133, 1-Methyl-2,4-dioxo-3-(2-phenoxy-ethyl)-1,2,3,4-tetrahydro-thieno[2,3-d]pyrimidine-6-carboxylic acid benzyl ester] — 4.5-fold lower, 74 nM
- CC(CO)Cn1c(=O)c2cc(C(=O)OCc3ccccc3)sc2n(C)c1=O (stereo not drawn) [Example 134, 3-(3-Hydroxy-2-methyl-propyl)-1-methyl-2,4-dioxo-1,2,3,4-tetrahydro-thieno[2,3-d]pyrimidine-6-carboxylic acid benzyl ester] — 4.5-fold higher, 1500 nM
- CC(C)Cn1c(=O)c2cc(C(=O)OCc3ccccc3)sc2n(C)c1=O [Example 135, 3-Isobutyl-1-methyl-2,4-dioxo-1,2,3,4-tetrahydro-thieno[2,3-d]pyrimidine-6-carboxylic acid benzyl ester] — 3.8-fold lower, 86 nM
- Cn1c(=O)n(Cc2ccc(Cl)nc2)c(=O)c2cc(C(=O)OCc3ccccc3)sc21 [Example 136, 3-(6-Chloro-pyridin-3-ylmethyl)-1-methyl-2,4-dioxo-1,2,3,4tetrahydro-thieno[2,3-d]pyrimidine-6-carboxylic acid benzyl ester] — 6.5-fold lower, 51 nM
